Series [1] in a line: Desalting and concentration of neutralized mother liquor on flat reverse osmosis membrane; residual rate (Example 2, Table 2). Format: physicochemical. The conditions noted are these: pH 5.2, 25°, 40 kg/cm^2 G. How it is done:
Next, water was added until the volume became the original volume. Further by repeating similar operation, the system was desalted and concentrated until the volume became half of the original volume.

Series [2] is described as follows: Permeability of valuable matters through reverse osmosis membranes (general findings). The conditions noted are these: in words; for permeability of valuable matters: reverse osmosis membrane having NaCl inhibition rate of approximately 30% or more.
A short description of series [3]: Desalting and concentration of raw solution on spiral polyamide reverse osmosis membranes; inhibition rate of each component (Example 1, Table 1). Format: physicochemical. The conditions noted are these: for Inhibition Rate: 40 kg/cm^2. How it is done: Desalting and concentration were performed, while cyclizing and mixing a non-permeation solution to and with the raw solution.
From the composition of the permeation liquid exhausted in this case, the inhibition rate of each component was calculated according to the following equation. [formula]
Analysis method: liquid chromatography (α-A(M)PM, α-APM, α-AP), (Cl^-).

For series [4] the following is noted: not told.
For series [5] the following is noted: cited from earlier work.
The mark [6] stands for this setting: Polyamide Type (A), NaCl inhibition rate 50%.
Where [7] appears, read: Polysulfone Type (B), NaCl inhibition rate 25%, comparison.
Setting [8] is: membrane NaCl inhibition rate 15% (control), immediately after permeation started, pH 4.54, 20° C.
Where [9] appears, read: membrane NaCl inhibition rate 15% (control), when concentrated to 2.5 times, 20° C.
Where [10] appears, read: membrane NaCl inhibition rate 30%, immediately after permeation started, pH 4.54, 20° C.
Setting [11] is: membrane NaCl inhibition rate 30%, when concentrated to 2.5 times, 20° C.
The mark [12] stands for this setting: membrane NaCl inhibition rate 60%, immediately after permeation started, pH 4.54, 20° C.
The mark [13] stands for this setting: membrane NaCl inhibition rate 60%, when concentrated to 2.5 times, 20° C.
Setting [14] is: membrane NaCl inhibition rate 80%, immediately after permeation started, pH 4.54, 20° C.
Where [15] appears, read: membrane NaCl inhibition rate 80%, when concentrated to 2.5 times, 20° C.

Read-outs that look alike come from different tables or passages of the source. Residues, ends and D or L forms follow the SMILES beside them.

Regarding `Cl.N` [NH4 Cl], the “Residual Rate” value came out at 50.4% in series [1] (setting [6]) and 32.5% in series [1] (setting [7]).
In the case of `COC(=O)C[C@H](N)C(=O)N[C@@H](Cc1ccccc1)C(=O)O` [α-A(M)P, methyl ester at the L-aspartic acid β-carboxy residue of α-L-aspartyl-L-phenylalanine] (H-Asp(OMe)-Phe-OH), the results for the “Residual Rate” value in series [1] (setting [6]) and in series [1] (setting [7]) were 97.8% and 60.8%, respectively. In addition, the “permeability for reverse osmosis membranes” value in series [2] was “low permeability”. Also, in series [2], the “permeability of valuable matters” value was “low”.
With `COC(=O)C[C@H](N)C(=O)N[C@@H](Cc1ccccc1)C(=O)OC` [α-A(M)PM, methyl ester of the L-aspartic acid β-carboxyl residue of α-L-aspartyl-L-phenylalanine methyl ester] (H-Asp(OMe)-Phe-OMe), the “Residual Rate” value in series [1] (setting [6]) was 80.3%; in series [1] (setting [7]), 48.2%. In series [2], the “permeability for reverse osmosis membranes” value is on record as “especially high permeability”. Besides, the “permeability of valuable matters” value in series [2] is given as “low”. Further, in series [3] (in words, conclusion of Example 1), the permeability through membrane entry is listed as “specifically readily permeable”. Moreover, the “Inhibition Rate” value was determined as 56.7% in series [3] (setting [8]); 59.3% in series [3] (setting [9]); 82.7% in series [3] (setting [10]); 84.1% in series [3] (setting [11]); 91.0% in series [3] (setting [12]); 92.2% in series [3] (setting [13]). The “Inhibition Rate” value in series [3] (setting [14]) stood at 93.1%; in series [3] (setting [15]) it was 93.9%.
Turning to `COC(=O)[C@H](Cc1ccccc1)NC(=O)[C@@H](N)CC(=O)O` [α-APM, α-L-aspartyl-L-phenylalanine methyl ester] (H-Asp-Phe-OMe), the “Residual Rate” value came to 98.0% in series [1] (setting [6]) and 60.8% in series [1] (setting [7]). Further, the “permeability for reverse osmosis membranes” value in series [4] was “low permeability”. Moreover, the “permeability of valuable matters” value in series [4] is “low”. The “Inhibition Rate” value is 74.1% in series [3] (setting [8]); 79.2% in series [3] (setting [9]); 96.2% in series [3] (setting [10]); 97.7% in series [3] (setting [11]); 99.1% in series [3] (setting [12]); 99.3% in series [3] (setting [13]). Moreover, the “Inhibition Rate” value is given as 99.0% in series [3] (setting [14]) and 99.6% in series [3] (setting [15]). Besides, the “stability in aqueous solution” value is listed as “readily undergoes various undesirable reactions” in series [5] (high temperatures or acidic media) and “relatively stable” in series [5] (temperatures lower than normal ambient temperatures).
For the compound `N[C@@H](CC(=O)O)C(=O)N[C@@H](Cc1ccccc1)C(=O)O` [α-AP, α-L-aspartyl-L-phenylalanine] (H-Asp-Phe-OH), the results for the “Residual Rate” value in series [1] (setting [6]) and in series [1] (setting [7]) were 98.7% and 68.9%, respectively. In addition, the “permeability for reverse osmosis membranes” value in series [2] is listed as “low permeability”. Further, the “permeability of valuable matters” value in series [2] is “low”. The “Inhibition Rate” value is given as 81.5% in series [3] (setting [8]); 85.6% in series [3] (setting [9]); 98.8% in series [3] (setting [10]); 98.3% in series [3] (setting [11]); 99.5% in series [3] (setting [12]); 99.7% in series [3] (setting [13]). Further, the “Inhibition Rate” value in series [3] (setting [14]) is listed as 99.7%; in series [3] (setting [15]) it was 99.9%.
With `[Cl-].[Na+]` [NaCl, sodium chloride], the “Inhibition Rate” value was 11.0% in series [3] (setting [8]); 9.3% in series [3] (setting [9]); 23.5% in series [3] (setting [10]); 19.4% in series [3] (setting [11]); 60.3% in series [3] (setting [12]); 56.5% in series [3] (setting [13]). The “Inhibition Rate” value worked out at 85.6% in series [3] (setting [14]) and 82.3% in series [3] (setting [15]).

The values are drawn from patent US4822907A, “Method for recovering α-L-aspartyl-L-phenylalanine methyl ester” (Ajinomoto Co., Inc., priority 1986, dated 1989).
